AC50 data for 29 compounds are collected here from US20250262201A1, “COMPOUNDS AND METHODS USEFUL FOR STABILIZING PHENYLALANINE HYDROXYLASE MUTATIONS” (Agios Pharmaceuticals, Inc., priority 2022, published 2025).

Structures are written as SMILES. Some results are limits rather than exact numbers.

For the test, the target named is T1, human PAH with the R408W mutation (Homo sapiens, UniProt P00439, R408W).
T1 construct: expressed in transfected cells
T1 sequence (P00439 1-452 R408W): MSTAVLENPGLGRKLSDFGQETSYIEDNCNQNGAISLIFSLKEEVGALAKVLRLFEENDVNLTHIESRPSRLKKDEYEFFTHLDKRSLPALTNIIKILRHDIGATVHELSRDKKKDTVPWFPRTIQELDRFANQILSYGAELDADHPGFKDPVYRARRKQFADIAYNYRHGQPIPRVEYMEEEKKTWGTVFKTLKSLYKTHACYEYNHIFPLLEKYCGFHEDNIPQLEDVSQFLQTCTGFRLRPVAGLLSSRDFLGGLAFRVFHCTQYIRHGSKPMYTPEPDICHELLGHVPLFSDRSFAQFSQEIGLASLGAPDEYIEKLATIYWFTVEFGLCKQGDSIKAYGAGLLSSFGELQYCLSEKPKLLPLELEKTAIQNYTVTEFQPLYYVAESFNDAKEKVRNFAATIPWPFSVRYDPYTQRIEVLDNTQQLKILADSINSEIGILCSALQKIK
Description: Cell Based Phenylalanine Flux Assay. The following applies: A375 cells expressing human R408W PAH; 24 hrs compound incubation; 13C-Tyrosine by LC-MS; average where tested multiple times; read-out: AC50.
As to `Cc1ncoc1C(=O)N1CCc2[nH]cnc2[C@@H]1c1cn2ccccc2n1` [Example 227, (S)-(4-(imidazo[1,2-a]pyridin-2-yl)-6,7-dihydro-1H-imidazo[4,5-c]pyridin-5(4H)-yl)(4-methyloxazol-5-yl)methanone], the AC50 was more than 5000 nM.
As to `Cc1ncoc1C(=O)N1CCc2[nH]cnc2[C@H]1c1cn2ccccc2n1` [Example 228, (R)-(4-(imidazo[1,2-a]pyridin-2-yl)-6,7-dihydro-1H-imidazo[4,5-c]pyridin-5(4H)-yl)(4-methyloxazol-5-yl)methanone], the AC50 was in the range of 1000 to 5000 nM.
The result for `FC(F)c1nnc(N2CCc3[nH]cnc3[C@H]2c2cn3ccccc3n2)o1` [Example 230, (R)-2-(difluoromethyl)-5-(4-(imidazo[1,2-a]pyridin-2-yl)-6,7-dihydro-1H-imidazo[4,5-c]pyridin-5(4H)-yl)-1,3,4-oxadiazole] reads 500 to 1000 nM; that for `FC(F)(F)c1cnc(N2CCc3[nH]cnc3[C@H]2c2cn3ccccc3n2)nc1` [Example 231, (R)-4-(imidazo[1,2-a]pyridin-2-yl)-5-(5-(trifluoromethyl)pyrimidin-2-yl)-4,5,6,7-tetrahydro-1H-imidazo[4,5-c]pyridine], less than 500 nM; that for `FC(F)(F)c1cnc(N2CCc3[nH]cnc3[C@@H]2c2cn3ccccc3n2)nc1` [Example 232, (S)-4-(imidazo[1,2-a]pyridin-2-yl)-5-(5-(trifluoromethyl)pyrimidin-2-yl)-4,5,6,7-tetrahydro-1H-imidazo[4,5-c]pyridine], more than 5000 nM.
Consider `O=C(c1ocnc1C(F)(F)F)N1CCc2[nH]cnc2[C@@H]1c1cn2ccccc2n1` [Example 233, (S)-(4-(imidazo[1,2-a]pyridin-2-yl)-6,7-dihydro-1H-imidazo[4,5-c]pyridin-5(4H)-yl)(4-(trifluoromethyl)oxazol-5-yl)methanone], for which the AC50 is more than 5000 nM.
For `O=C(c1ocnc1C(F)(F)F)N1CCc2[nH]cnc2[C@H]1c1cn2ccccc2n1` [Example 234, (R)-(4-(imidazo[1,2-a]pyridin-2-yl)-6,7-dihydro-1H-imidazo[4,5-c]pyridin-5(4H)-yl)(4-(trifluoromethyl)oxazol-5-yl)methanone], the AC50 is less than 500 nM.
Consider `O=C(CC1CC1)N1CCc2[nH]cnc2[C@@H]1c1cn2ccccc2n1` [Example 237, (S)-2-cyclopropyl-1-(4-(imidazo[1,2-a]pyridin-2-yl)-6,7-dihydro-1H-imidazo[4,5-c]pyridin-5(4H)-yl)ethanone], for which the AC50 is more than 5000 nM.
The result for `O=C(CC1CC1)N1CCc2[nH]cnc2[C@H]1c1cn2ccccc2n1` [Example 238, (R)-2-cyclopropyl-1-(4-(imidazo[1,2-a]pyridin-2-yl)-6,7-dihydro-1H-imidazo[4,5-c]pyridin-5(4H)-yl)ethanone] reads less than 500 nM.
For the compound `O=C(c1oc(C2CC2)nc1C(F)(F)F)N1CCc2[nH]cnc2[C@H]1c1cn2ccccc2n1` [Example 240, (R)-(2-cyclopropyl-4-(trifluoromethyl)oxazol-5-yl)(4-(imidazo[1,2-a]pyridin-2-yl)-6,7-dihydro-1H-imidazo[4,5-c]pyridin-5(4H)-yl)methanone], the AC50 is less than 500 nM.
For `O=C(CCC1CC1)N1CCc2[nH]cnc2[C@@H]1c1cn2ccccc2n1` [Example 241, (S)-3-cyclopropyl-1-(4-(imidazo[1,2-a]pyridin-2-yl)-6,7-dihydro-1H-imidazo[4,5-c]pyridin-5(4H)-yl)propan-1-one], the AC50 was more than 5000 nM.
As to `O=C(CCC1CC1)N1CCc2[nH]cnc2[C@H]1c1cn2ccccc2n1` [Example 242, (R)-3-cyclopropyl-1-(4-(imidazo[1,2-a]pyridin-2-yl)-6,7-dihydro-1H-imidazo[4,5-c]pyridin-5(4H)-yl)propan-1-one], the AC50 is less than 500 nM.
For `O=C(c1ocnc1C1CC1)N1CCc2[nH]cnc2[C@@H]1c1cn2ccccc2n1` [Example 243, (S)-(4-cyclopropyloxazol-5-yl)(4-(imidazo[1,2-a]pyridin-2-yl)-6,7-dihydro-1H-imidazo[4,5-c]pyridin-5(4H)-yl)methanone], the AC50 was 1000 to 5000 nM.
With `O=C(c1ocnc1C1CC1)N1CCc2[nH]cnc2[C@H]1c1cn2ccccc2n1` [Example 244, (R)-(4-cyclopropyloxazol-5-yl)(4-(imidazo[1,2-a]pyridin-2-yl)-6,7-dihydro-1H-imidazo[4,5-c]pyridin-5(4H)-yl)methanone], the AC50 lay within 500 to 1000 nM.
Then `CC(C)(C)c1ncc(C(=O)N2CCc3[nH]cnc3[C@H]2c2cn3ccccc3n2)s1` [Example 245, (R)-(2-(tert-butyl)thiazol-5-yl)(4-(imidazo[1,2-a]pyridin-2-yl)-6,7-dihydro-1H-imidazo[4,5-c]pyridin-5(4H)-yl)methanone], with 500 to 1000 nM.
Turning to `CC(C)(C)c1ncc(C(=O)N2CCc3[nH]cnc3[C@@H]2c2cn3ccccc3n2)s1` [Example 246, (S)-(2-(tert-butyl)thiazol-5-yl)(4-(imidazo[1,2-a]pyridin-2-yl)-6,7-dihydro-1H-imidazo[4,5-c]pyridin-5(4H)-yl)methanone], the AC50 is more than 5000 nM.
For `CC(C)(F)c1ncc(C(=O)N2CCc3[nH]cnc3[C@@H]2c2cn3ccccc3n2)s1` [Example 247, (S)-(2-(2-fluoropropan-2-yl)thiazol-5-yl)(4-(imidazo[1,2-a]pyridin-2-yl)-6,7-dihydro-1H-imidazo[4,5-c]pyridin-5(4H)-yl)methanone], the AC50 was more than 5000 nM.
Regarding `CC(C)(F)c1ncc(C(=O)N2CCc3[nH]cnc3[C@H]2c2cn3ccccc3n2)s1` [Example 248, (R)-(2-(2-fluoropropan-2-yl)thiazol-5-yl)(4-(imidazo[1,2-a]pyridin-2-yl)-6,7-dihydro-1H-imidazo[4,5-c]pyridin-5(4H)-yl)methanone], the AC50 lay in the range of 500 to 1000 nM.
Take `CC(C)(C)c1ncc(C(=O)N2CCc3[nH]cnc3[C@H]2c2cn3ccccc3n2)o1` [Example 250, (R)-(2-(tert-butyl)oxazol-5-yl)(4-(imidazo[1,2-a]pyridin-2-yl)-6,7-dihydro-1H-imidazo[4,5-c]pyridin-5(4H)-yl)methanone]: the concentration at half-maximal activity (AC50) was 500 to 1000 nM.
In the case of `O=C(c1cnc(C2(F)CCC2)s1)N1CCc2[nH]cnc2[C@H]1c1cn2ccccc2n1` [Example 251, (R)-(2-(1-fluorocyclobutyl)thiazol-5-yl)(4-(imidazo[1,2-a]pyridin-2-yl)-6,7-dihydro-1H-imidazo[4,5-c]pyridin-5(4H)-yl)methanone], the AC50 is 1000 to 5000 nM.
For the compound `O=C(c1cnc(C2(F)CCC2)s1)N1CCc2[nH]cnc2[C@@H]1c1cn2ccccc2n1` [Example 252, (S)-(2-(1-fluorocyclobutyl)thiazol-5-yl)(4-(imidazo[1,2-a]pyridin-2-yl)-6,7-dihydro-1H-imidazo[4,5-c]pyridin-5(4H)-yl)methanone], the half-maximal activity concentration (AC50) is more than 5000 nM.
For the compound `O=C(CC1CC(F)C1)N1CCc2[nH]cnc2[C@@H]1c1cn2ccccc2n1` (stereo partly drawn) [Example 253, (S)-2-(3-fluorocyclobutyl)-1-(4-(imidazo[1,2-a]pyridin-2-yl)-6,7-dihydro-1H-imidazo[4,5-c]pyridin-5(4H)-yl)ethanone], the half-maximal activity concentration (AC50) fell in the range of 1000 to 5000 nM.
As to `O=C(CC1CC(F)C1)N1CCc2[nH]cnc2[C@H]1c1cn2ccccc2n1` (stereo partly drawn) [Example 254, (R)-2-(3-fluorocyclobutyl)-1-(4-(imidazo[1,2-a]pyridin-2-yl)-6,7-dihydro-1H-imidazo[4,5-c]pyridin-5(4H)-yl)ethanone], the half-maximal activity concentration (AC50) is less than 500 nM.
Then `O=C(c1oc(-c2ccccn2)nc1C(F)(F)F)N1CCc2[nH]cnc2[C@H]1c1cn2ccccc2n1` [Example 256, (R)-(4-(imidazo[1,2-a]pyridin-2-yl)-6,7-dihydro-1H-imidazo[4,5-c]pyridin-5(4H)-yl)(2-(pyridin-2-yl)-4-(trifluoromethyl)oxazol-5-yl)methanone], with less than 500 nM.
Take `O=C(CCc1nccs1)N1CCc2[nH]cnc2[C@H]1c1ncc2ccccc2n1` [Example 273, (S)-1-(4-(quinazolin-2-yl)-6,7-dihydro-1H-imidazo[4,5-c]pyridin-5(4H)-yl)-3-(thiazol-2-yl)propan-1-one]: the AC50 was less than 500 nM.
Then `O=C(CCc1nccs1)N1CCc2[nH]cnc2[C@@H]1c1ncc2ccccc2n1` [Example 274, (R)-1-(4-(quinazolin-2-yl)-6,7-dihydro-1H-imidazo[4,5-c]pyridin-5(4H)-yl)-3-(thiazol-2-yl)propan-1-one], with more than 5000 nM.
As to `Cn1nc(C(F)F)nc1C(=O)N1CCc2[nH]cnc2[C@H]1c1ncc2ccccc2n1` [Example 276, (S)-(3-(difluoromethyl)-1-methyl-1H-1,2,4-triazol-5-yl)(4-(quinazolin-2-yl)-6,7-dihydro-1H-imidazo[4,5-c]pyridin-5(4H)-yl)methanone], the AC50 is less than 500 nM.
Take `O=C(c1oc(-c2ccc(C(F)(F)F)cn2)nc1C(F)F)N1CCc2[nH]cnc2[C@H]1c1ncc2ccccc2n1` [Example 278, (S)-(4-(difluoromethyl)-2-(5-(trifluoromethyl)pyridin-2-yl)oxazol-5-yl)(4-(quinazolin-2-yl)-6,7-dihydro-1H-imidazo[4,5-c]pyridin-5(4H)-yl)methanone]: the AC50 was less than 500 nM.
As to `O=C(c1oc(N2CCC(F)CC2)nc1C(F)F)N1CCc2[nH]cnc2[C@H]1c1ncc2ccccc2n1` [Example 280, (S)-(4-(difluoromethyl)-2-(4-fluoropiperidin-1-yl)oxazol-5-yl)(4-(quinazolin-2-yl)-6,7-dihydro-1H-imidazo[4,5-c]pyridin-5(4H)-yl)methanone], the AC50 was less than 500 nM.

By AC50 is commonly meant the concentration at which the activity in the assay is half-maximal.
